Here are results for 30 compounds from patent publication US11230526B1, “Cylcoalkenyl derivatives useful as agonists of the GPR120 and/or GPR40 receptors” (Janssen Pharmaceutica NV, priority 2018, dated 2022).

The target in one assay is T1, Human GPR120 short form (Homo sapiens, UniProt Q5NUL3).
T1 construct: expressed in transfected cells
T1 sequence (Q5NUL3 1-361): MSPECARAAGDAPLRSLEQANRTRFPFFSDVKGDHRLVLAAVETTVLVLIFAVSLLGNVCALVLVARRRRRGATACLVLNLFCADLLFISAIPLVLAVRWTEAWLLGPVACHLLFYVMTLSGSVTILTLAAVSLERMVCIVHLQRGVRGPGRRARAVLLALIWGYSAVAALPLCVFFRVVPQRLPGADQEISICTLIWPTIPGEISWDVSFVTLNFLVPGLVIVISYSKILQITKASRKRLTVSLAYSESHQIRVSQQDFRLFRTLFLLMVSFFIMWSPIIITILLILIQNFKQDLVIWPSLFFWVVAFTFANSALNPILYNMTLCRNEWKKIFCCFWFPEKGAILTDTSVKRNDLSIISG
Briefly: Human GPR120 calcium flux assay, Procedure Calcium B (4200 cells/well). The assay is classed as cell-based. The method, boiled down: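 Agonist EC50 came from a four-parameter fit of RFU (Fmax−Fmin) read over 300 s on FLIPR. Cells were HEK293 stably transfected with human GPR120 (NM_001195755.1) at 4200 per well, serum-starved 1 h and loaded with Fluo-4 NW dye with probenecid before ligand addition.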

The next assay addresses T2, human GPR40 (Homo sapiens, UniProt O14842).
T2 construct: expressed in transfected cells
Put plainly: GPR40 calcium flux assay, human GPR40. The assay is classed as cell-based. Particulars: HEK293 cells stably expressing GPR40; table does not say human or rat. The method, boiled down:
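Cells preincubated 1 h at 37° C. in HBSS, 20 mM HEPES, 0.1% BSA, then Fluo 8 calcium dye 30 min at 37° C. and 15 min at room temperature.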
(Calcium flux is commonly read through the fluorescence of an indicator in the cells.)

Molecules are shown by their SMILES.

T2 sequence (O14842 whole entry): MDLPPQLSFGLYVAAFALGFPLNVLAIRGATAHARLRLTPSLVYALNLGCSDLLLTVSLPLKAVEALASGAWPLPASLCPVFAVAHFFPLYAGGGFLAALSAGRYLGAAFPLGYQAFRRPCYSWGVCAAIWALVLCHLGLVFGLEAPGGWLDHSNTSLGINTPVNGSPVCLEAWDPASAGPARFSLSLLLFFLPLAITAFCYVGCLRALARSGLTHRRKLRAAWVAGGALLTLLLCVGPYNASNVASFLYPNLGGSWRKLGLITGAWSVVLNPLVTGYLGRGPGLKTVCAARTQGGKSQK

In the case of `Cc1ccc(C2=C(COc3ccc(CCC(=O)O)c(Cl)c3)CCC2)cc1` [Compound 310, 3-[2-chloro-4-[[2-(p-tolyl)cyclopenten-1-yl]methoxy]phenyl]Propanoic Acid], the EC50 – broadly, the midpoint of the concentration-response curve – was 209 nM at Human GPR120 short form and 1120 nM on human GPR40.

In the case of `CC1CCC(c2ccc(Cl)cc2)=C1COc1ccc(CCC(=O)O)c(C(F)(F)F)c1` (stereo not drawn) [Compound 336, 3-[4-[[2-(4-chlorophenyl)-5-methyl-cyclopenten-1-yl]methoxy]-2-(trifluoromethyl)phenyl]Propanoic Acid], the EC50 at Human GPR120 short form came out at 562 nM; at human GPR40, 428 nM.

As for `C=C(Br)c1cc(OCC2=C(C3CCCC3)CCC2)ccc1CCC(=O)O` [Compound 448, 3-[2-(1-bromovinyl)-4-[(2-cyclopentylcyclopenten-1-yl)methoxy]phenyl]Propanoic Acid], the EC50 is over 5000 nM on Human GPR120 short form and 2040 nM at human GPR40.

For `O=C(O)CCc1ccc(OCC2=C(Cc3ccccc3)CCC2)cc1` [Compound 322, 3-[4-[(2-benzylcyclopenten-1-yl)methoxy]phenyl]Propanoic Acid], the EC50 at Human GPR120 short form came to 1140 nM; at human GPR40 it was 328 nM.

Consider `Cc1cc(CCC(=O)O)ccc1OCC1=C(c2ccco2)CC(F)(F)C1` [Compound 232, 3-[4-[[4,4-difluoro-2-(2-furyl)cyclopenten-1-yl]methoxy]-3-methyl-phenyl]Propanoic Acid], for which the EC50 at Human GPR120 short form and at human GPR40 was over 5000 nM in each case.

Consider `Cc1cc(OCC2=C(c3ccccc3C)CCC2)c(F)cc1CCC(=O)O` [Compound 262, 3-[5-fluoro-2-methyl-4-[[2-(o-tolyl)cyclopenten-1-yl]methoxy]phenyl]Propanoic Acid], for which the EC50 at Human GPR120 short form was over 5000 nM; at human GPR40, 1290 nM.

With `O=C(O)CCc1ccc(OCC2=C(C3CCCC3)CCC(F)(F)CC2)cc1F` [Compound 610, 3-[4-[(2-cyclopentyl-5,5-difluoro-cyclohepten-1-yl)methoxy]-2-fluoro-phenyl]Propanoic Acid], the EC50 on Human GPR120 short form amounted to 302 nM; on human GPR40, 267 nM.

With `Cc1cc(OCC2=C(c3ccc(Br)cc3)CC(F)(F)C2)c(F)cc1CCC(=O)O` [Compound 392, 3-[4-[[2-(4-bromophenyl)-4,4-difluoro-cyclopenten-1-yl]methoxy]-5-fluoro-2-methyl-phenyl]Propanoic Acid], the EC50 on Human GPR120 short form is 223 nM; at human GPR40, 1400 nM.

For `O=C(O)CCc1ccc(OCC2=C(Cc3ccccc3)CCC2)cc1Cl` [Compound 329, 3-[4-[(2-benzylcyclopenten-1-yl)methoxy]-2-chloro-phenyl]Propanoic Acid], the EC50 is 1600 nM on Human GPR120 short form and 101 nM on human GPR40.

For the compound `O=C(O)CCc1ccc(OCC2=C(Cc3cccc(F)c3)CCC2)cc1C(F)(F)F` [Compound 361, 3-[4-[[2-[(3-fluorophenyl)methyl]cyclopenten-1-yl]methoxy]-2-(trifluoromethyl)phenyl]Propanoic Acid], the EC50 at Human GPR120 short form was 3300 nM; on human GPR40 it was 131 nM.

Regarding `CC(C)CC1=C(COc2ccc(CCC(=O)O)cc2)CCCC1` [Compound 578, 3-[4-[(2-isobutylcyclohexen-1-yl)methoxy]phenyl]Propanoic Acid], the EC50 was found to be 1780 nM on Human GPR120 short form and 2140 nM on human GPR40.

For the compound `Cc1cc(OCC2=C(c3ccc(Cl)cc3F)CCC2)c(F)cc1CCC(=O)O` [Compound 281, 3-[4-[[2-(4-chloro-2-fluoro-phenyl)cyclopenten-1-yl]methoxy]-5-fluoro-2-methyl-phenyl]Propanoic Acid], the EC50 came out at 314 nM at Human GPR120 short form and 474 nM on human GPR40.

On to `Cc1ccccc1C1=C(COc2ccc(CCC(=O)O)c(C(F)(F)F)c2)CCC1` [Compound 257, 3-[4-[[2-(o-tolyl)cyclopenten-1-yl]methoxy]-2-(trifluoromethyl)phenyl]Propanoic Acid], for which the EC50 at Human GPR120 short form came to 2640 nM; at human GPR40, 337 nM.

Take `Cc1cccc(C2=C(COc3ccc(CCC(=O)O)c(C(F)(F)F)c3)CCC2)c1` [Compound 312, 3-[4-[[2-(m-tolyl)cyclopenten-1-yl]methoxy]-2-(trifluoromethyl)phenyl]Propanoic Acid]: the EC50 on Human GPR120 short form was 612 nM; on human GPR40, 402 nM.

As for `O=C(O)CCc1ccc(OCC2=C(c3ccc(Br)cc3)CCC2)cc1Cl` [Compound 276, 3-[4-[[2-(4-bromophenyl)cyclopenten-1-yl]methoxy]-2-chloro-phenyl]Propanoic Acid], the EC50 at Human GPR120 short form came to 427 nM; at human GPR40, 193 nM.

Consider `CC(C)C1=C(COc2ccc(CCC(=O)O)c(Cl)c2)CCCC1` [Compound 587, 3-[2-chloro-4-[(2-isopropylcyclohexen-1-yl)methoxy]phenyl]Propanoic Acid], for which the EC50 stood at 1140 nM on Human GPR120 short form and 99 nM at human GPR40.

Consider `O=C(O)CCc1ccc(OCC2=C(C3C=CCC3)CCC2)cc1C(F)(F)F` (stereo not drawn) [Compound 453, 3-[4-[(2-cyclopent-2-en-1-ylcyclopenten-1-yl)methoxy]-2-(trifluoromethyl)phenyl]Propanoic Acid], for which the EC50 on Human GPR120 short form amounted to 181 nM; on human GPR40, 10 nM.

`CC1CCC(COc2ccc(CCC(=O)O)c(C(F)(F)F)c2)=C1c1ccccc1` (stereo not drawn) [Compound 306, 3-[4-[(3-methyl-2-phenyl-cyclopenten-1-yl)methoxy]-2-(trifluoromethyl)phenyl]Propanoic Acid]: the values for the EC50 on Human GPR120 short form and at human GPR40 were 1120 nM and 347 nM, respectively.

As for `CC1CCC(c2ccccc2)=C1COc1ccc(CCC(=O)O)cc1` (stereo not drawn) [Compound 366, 3-[4-[(5-methyl-2-phenyl-cyclopenten-1-yl)methoxy]phenyl]Propanoic Acid], the concentration for a half-maximal effect (EC50) at Human GPR120 short form is 1140 nM; on human GPR40 it was over 10000 nM.

`O=C(O)CCc1ccc(OCC2=C(c3ccc(OC(F)(F)F)cc3)CCC2)cc1C(F)(F)F` [Compound 308, 3-[4-[[2-[4-(trifluoromethoxy)phenyl]cyclopenten-1-yl]methoxy]-2-(trifluoromethyl)phenyl]Propanoic Acid]: the results for the EC50 on Human GPR120 short form and on human GPR40 were over 5000 nM and 899 nM, respectively.

Consider `O=C(O)CCc1ccc(OCC2=C(Cc3ccc(F)cc3)CCC2)cc1Cl` [Compound 349, 3-[2-chloro-4-[[2-[(4-fluorophenyl)methyl]cyclopenten-1-yl]methoxy]phenyl]Propanoic Acid], for which the values for the EC50 on Human GPR120 short form and at human GPR40 were 1900 nM and 60 nM, respectively.

With `O=C(O)CCc1ccc(OCC2=C(C3CCC3)CCC2)cc1Cl` [Compound 400, 3-[2-chloro-4-[(2-cyclobutylcyclopenten-1-yl)methoxy]phenyl]Propanoic Acid], the EC50 on Human GPR120 short form amounted to 995 nM; at human GPR40, 135 nM.

Consider `COc1ccc(C2=C(COc3cc(C)c(CCC(=O)O)cc3F)CCC2)c(C)c1` [Compound 278, 3-[5-fluoro-4-[[2-(4-methoxy-2-methyl-phenyl)cyclopenten-1-yl]methoxy]-2-methyl-phenyl]Propanoic Acid], for which the EC50 was over 5000 nM at Human GPR120 short form and 302 nM on human GPR40.

In the case of `Cc1cc(OCC2=C(C3CCCC3)CCC2)ccc1CCC(=O)O` [Compound 422, 3-[4-[(2-cyclopentylcyclopenten-1-yl)methoxy]-2-methyl-phenyl]Propanoic Acid], the EC50 on Human GPR120 short form turned out to be 177 nM; at human GPR40, 48 nM.

Turning to `O=C(O)CCc1ccc(OCC2=C(Cc3ccc(F)cc3)CCC2)cc1C(F)(F)F` [Compound 353, 3-[4-[[2-[(4-fluorophenyl)methyl]cyclopenten-1-yl]methoxy]-2-(trifluoromethyl)phenyl]Propanoic Acid], the figures for the EC50 on Human GPR120 short form and on human GPR40 were 1330 nM and 46 nM, respectively.

In the case of `Cc1cc(OCC2=C(c3cc(Cl)ccc3F)CCC2)c(F)cc1CCC(=O)O` [Compound 339, 3-[4-[[2-(5-chloro-2-fluoro-phenyl)cyclopenten-1-yl]methoxy]-5-fluoro-2-methyl-phenyl]Propanoic Acid], the values for the EC50 on Human GPR120 short form and at human GPR40 were 803 nM and 356 nM, respectively.

In the case of `O=C(O)CCc1ccc(OCC2=C(C3CCCC3)CCCCC2)cc1` [Compound 614, 3-[4-[(2-cyclopentylcyclohepten-1-yl)methoxy]phenyl]Propanoic Acid], the EC50 was 376 nM at Human GPR120 short form and 560 nM on human GPR40.

On to `Cc1ccc(C2=C(COc3ccc(CCC(=O)O)c(C(F)(F)F)c3)CCC2)cc1-c1ccccc1` [Compound 292, 3-[4-[[2-(4-methyl-3-phenyl-phenyl)cyclopenten-1-yl]methoxy]-2-(trifluoromethyl)phenyl]Propanoic Acid], for which the EC50 on Human GPR120 short form is over 5000 nM; on human GPR40, 1720 nM.

As for `O=C(O)CCc1ccc(OCC2=C(C3C=CCC3)CCC2)cc1Cl` (stereo not drawn) [Compound 451, 3-[2-chloro-4-[(2-cyclopent-2-en-1-ylcyclopenten-1-yl)methoxy]phenyl]Propanoic Acid], the EC50 was determined as 249 nM at Human GPR120 short form and 32 nM at human GPR40.

With `Cc1cccc(CC2=C(COc3ccc(CCC(=O)O)c(C(F)(F)F)c3)CCC2)c1` [Compound 405, 3-[4-[[2-(m-tolylmethyl)cyclopenten-1-yl]methoxy]-2-(trifluoromethyl)phenyl]Propanoic Acid], the EC50 amounted to 1820 nM on Human GPR120 short form and 205 nM at human GPR40.
